Data taken from the supplement of paper PMC10307832.

Key:
Assay in all cases: relative viability (nuclei count vs DMSO), 5 days (fraction); higher = more cells survive
CAL-12T = test system: CAL-12T
Procedure, shortened: (§1)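 Values are medians from duplicate plates. Each reflects relative viability, defined as the nuclei count of treated wells over that of vehicle wells. Lung cancer cell lines in 1536-well plates were pin-tool dosed one day after seeding with one drug alone or with a fixed anchor-drug dose plus five library-drug doses (not always all listed) in √10 steps, then fixed, stained and imaged at 4× after 5 days.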

COR-L 105 = test system: COR-L 105
Procedure, shortened: as §1

ChaGo-K-1 = test system: ChaGo-K-1
Procedure, shortened: as §1

EKVX = test system: EKVX
Procedure, shortened: as §1

EPLC-272H = test system: EPLC-272H
Procedure, shortened: as §1

H3255 = test system: H3255
Procedure, shortened: as §1

HCC-366 = test system: HCC-366
Procedure, shortened: as §1

HCC-827 = test system: HCC-827
Procedure, shortened: as §1

NCI-H1355 = test system: NCI-H1355
Procedure, shortened: as §1

NCI-H1792 = test system: NCI-H1792
Procedure, shortened: as §1

NCI-H1975 = test system: NCI-H1975
Procedure, shortened: as §1

NCI-H1993 = test system: NCI-H1993
Procedure, shortened: as §1

NCI-H2009 = test system: NCI-H2009
Procedure, shortened: as §1

NCI-H2085 = test system: NCI-H2085
Procedure, shortened: as §1

NCI-H2087 = test system: NCI-H2087
Procedure, shortened: as §1

NCI-H2228 = test system: NCI-H2228
Procedure, shortened: as §1

NCI-H2342 = test system: NCI-H2342
Procedure, shortened: as §1

NCI-H322M = test system: NCI-H322M
Procedure, shortened: as §1

NCI-H441 = test system: NCI-H441
Procedure, shortened: as §1

NCI-H460 = test system: NCI-H460
Procedure, shortened: as §1

SK-MES-1 = test system: SK-MES-1
Procedure, shortened: as §1

`CN1CCN(CCOc2cc(OC3CCOCC3)c3c(Nc4c(Cl)ccc5c4OCO5)ncnc3c2)CC1` [Saracatinib] + Nc1nc2[nH]cc(CCc3ccc(C(=O)N[C@@H](CCC(=O)O)C(=O)O)cc3)c2c(=O)[nH]1 [Pemetrexed] (partner 0.2 µM) showed a relative viability (CAL-12T; first compound 0.02 µM) of 1.27, a relative viability (CAL-12T; first compound 0.2 µM) of 1.15 and a relative viability (CAL-12T; first compound 0.6325 µM) of 1.33. It also gave a relative viability (CAL-12T; first compound 2 µM) of 1.18, a relative viability (COR-L 105; first compound 0.02 µM) of 1.2 and a relative viability (COR-L 105; first compound 0.2 µM) of 1.21. The relative viability (COR-L 105; first compound 0.6325 µM) was 1.26, the relative viability (COR-L 105; first compound 2 µM) was 0.717 and the relative viability (ChaGo-K-1; first compound 0.02 µM) was 0.28. For the same molecule, the relative viability (ChaGo-K-1; first compound 0.2 µM) was 0.254, the relative viability (ChaGo-K-1; first compound 0.6325 µM) was 0.26 and the relative viability (ChaGo-K-1; first compound 2 µM) was 0.269. For the same molecule, the relative viability (EKVX; first compound 0.02 µM) was 0.429, the relative viability (EKVX; first compound 0.6325 µM) was 0.498 and the relative viability (EKVX; first compound 2 µM) was 0.369. For the same molecule, the relative viability (EPLC-272H; first compound 0.02 µM) was 0.334, the relative viability (EPLC-272H; first compound 0.2 µM) was 0.313 and the relative viability (EPLC-272H; first compound 0.6325 µM) was 0.239. The relative viability (EPLC-272H; first compound 2 µM) was 0.251, the relative viability (H3255; first compound 0.02 µM) was 0.591 and the relative viability (H3255; first compound 0.2 µM) was 0.514. It also gave a relative viability (H3255; first compound 0.6325 µM) of 0.521, a relative viability (H3255; first compound 2 µM) of 0.421 and a relative viability (HCC-366; first compound 0.02 µM) of 0.162. The relative viability (HCC-366; first compound 0.2 µM) was 0.17, the relative viability (HCC-366; first compound 0.6325 µM) was 0.189 and the relative viability (HCC-366; first compound 2 µM) was 0.17. It also gave a relative viability (HCC-827; first compound 0.02 µM) of 0.286, a relative viability (HCC-827; first compound 0.2 µM) of 0.158 and a relative viability (HCC-827; first compound 0.6325 µM) of 0.189. It also gave a relative viability (HCC-827; first compound 2 µM) of 0.168, a relative viability (NCI-H1355; first compound 0.02 µM) of 1 and a relative viability (NCI-H1355; first compound 0.2 µM) of 1.02. For the same molecule, the relative viability (NCI-H1355; first compound 0.6325 µM) was 1, the relative viability (NCI-H1355; first compound 2 µM) was 1.06 and the relative viability (NCI-H1792; first compound 0.02 µM) was 1.06. For the same molecule, the relative viability (NCI-H1792; first compound 0.2 µM) was 0.644, the relative viability (NCI-H1792; first compound 0.6325 µM) was 1.12 and the relative viability (NCI-H1792; first compound 2 µM) was 0.788. The relative viability (NCI-H1975; first compound 0.02 µM) was 0.276, the relative viability (NCI-H1975; first compound 0.2 µM) was 0.265 and the relative viability (NCI-H1975; first compound 0.6325 µM) was 0.275. The relative viability (NCI-H1975; first compound 2 µM) was 0.253, the relative viability (NCI-H1993; first compound 0.02 µM) was 0.626 and the relative viability (NCI-H1993; first compound 0.2 µM) was 0.519. For the same molecule, the relative viability (NCI-H1993; first compound 0.6325 µM) was 0.642, the relative viability (NCI-H1993; first compound 2 µM) was 0.471 and the relative viability (NCI-H2009; first compound 0.02 µM) was 1.01. The relative viability (NCI-H2009; first compound 0.2 µM) was 0.962, the relative viability (NCI-H2009; first compound 0.6325 µM) was 0.993 and the relative viability (NCI-H2009; first compound 2 µM) was 1.05. It also gave a relative viability (NCI-H2085; first compound 0.02 µM) of 0.929, a relative viability (NCI-H2085; first compound 0.2 µM) of 0.838 and a relative viability (NCI-H2085; first compound 0.6325 µM) of 0.85. The relative viability (NCI-H2085; first compound 2 µM) was 0.63, the relative viability (NCI-H2087; first compound 0.02 µM) was 0.63 and the relative viability (NCI-H2087; first compound 0.2 µM) was 0.722. The relative viability (NCI-H2087; first compound 0.6325 µM) was 0.574, the relative viability (NCI-H2087; first compound 2 µM) was 0.707 and the relative viability (NCI-H2228; first compound 0.02 µM) was 0.355. The relative viability (NCI-H2228; first compound 0.2 µM) was 0.342, the relative viability (NCI-H2228; first compound 0.6325 µM) was 0.332 and the relative viability (NCI-H2228; first compound 2 µM) was 0.266. For the same molecule, the relative viability (NCI-H2342; first compound 0.02 µM) was 0.83, the relative viability (NCI-H2342; first compound 0.2 µM) was 0.673 and the relative viability (NCI-H2342; first compound 0.6325 µM) was 0.789. It also gave a relative viability (NCI-H2342; first compound 2 µM) of 0.84, a relative viability (NCI-H322M; first compound 0.02 µM) of 0.574 and a relative viability (NCI-H322M; first compound 0.2 µM) of 0.55. For the same molecule, the relative viability (NCI-H322M; first compound 0.6325 µM) was 0.505, the relative viability (NCI-H322M; first compound 2 µM) was 0.32 and the relative viability (NCI-H441; first compound 0.02 µM) was 0.28. It also gave a relative viability (NCI-H441; first compound 0.2 µM) of 0.238, a relative viability (NCI-H441; first compound 0.6325 µM) of 0.316 and a relative viability (NCI-H441; first compound 2 µM) of 0.272. It also gave a relative viability (NCI-H460; first compound 0.02 µM) of 0.0672, a relative viability (NCI-H460; first compound 0.2 µM) of 0.0368 and a relative viability (NCI-H460; first compound 0.6325 µM) of 0.0538. The relative viability (NCI-H460; first compound 2 µM) was 0.0548, the relative viability (SK-MES-1; first compound 0.02 µM) was 0.923 and the relative viability (SK-MES-1; first compound 0.2 µM) was 0.905. For the same molecule, the relative viability (SK-MES-1; first compound 0.6325 µM) was 0.886 and the relative viability (SK-MES-1; first compound 2 µM) was 0.466.
